We go through one compound from US20240009259A1, “USE OF CRASSOCEPHALUM RABENS EXTRACT IN THE PREVENTION AND/OR TREATMENT OF FATIGUE AND/OR DEPRESSION” (ACADEMIA SINICA, priority 2021, published 2024).

Counter-ions that a name gives are not always drawn.

The nature of data set [1]: Blood (serum) biochemical parameters after 28-day treatment. Type of data set: in vivo, BALB/c mice. To be noted: male mice, 28 days.
For data set [2], the system named is skeletal muscle malate dehydrogenase (MDH). Kind of data set: Skeletal muscle malate dehydrogenase (MDH) activity after forced swimming test. The data set is classed as in vivo, BALB/c mice. The conditions noted are these: Program II; male mice; Fluoxetine 10 mg/kg i.p. daily.
The format of data set [3] is in vivo, BALB/c mice. To be noted: Program II; male mice; Fluoxetine 10 mg/kg i.p. daily, 4 weeks.
The test system of data set [4] is skeletal muscle lactate dehydrogenase (LDH). As to the kind of experiment: Skeletal muscle lactate dehydrogenase (LDH) activity after forced swimming test. The data set is classed as in vivo, BALB/c mice. The conditions noted are these: Program II; male mice; Fluoxetine 10 mg/kg i.p. daily.

For `CNCCC(Oc1ccc(C(F)(F)F)cc1)c1ccccc1` (centres unmarked) [Fluoxetine, fluoxetine hydrochloride], in data set [1] (Fluoxetine 10 mg/kg i.p. daily), the “ALB, albumin (serum)” value is 3.67 ± 0.28 g/dL; the “ALP, alkaline phosphatase (serum)” value came to 501.2 ± 21.2 U/L; the “CHO, cholesterol (serum)” value is recorded as 136.5 ± 42.9 mg/dL; the “CTE, creatinine (serum)” value is reported as 0.45 ± 0.05 mg/dL. Moreover, in data set [1] (Fluoxetine 10 mg/kg i.p. daily), the “GLU, glucose (serum)” value amounted to 207.0 ± 12.6 mg/dL; the “GOT, glutamic oxaloacetic transaminase (serum)” value is reported as 171.0 ± 19.8 U/L; the “GPT, glutamic pyruvic transaminase (serum)” value was 61.2 ± 19.2 U/L; the “HDL, high-density lipoprotein (serum)” value is on record as 136.6 ± 15.3 mg/dL. Moreover, in data set [1] (Fluoxetine 10 mg/kg i.p. daily), the “LDH, lactate dehydrogenase (serum)” value stood at 362.7 ± 65.3 U/L; the “TBIL, total bilirubin (serum)” value came to 0.65 ± 0.04 mg/dL; the “TG, triglyceride (serum)” value stood at 288.3 ± 27.1 mg/dL; the “TP, total protein (serum)” value is recorded as 5.01 ± 0.35 g/dL. Also, the “UA, uric acid (serum)” value in data set [1] (Fluoxetine 10 mg/kg i.p. daily) turned out to be 2.77 ± 0.32 mg/dL. The “serum biochemical parameters” value in data set [1] (Fluoxetine i.p.) is “no significant difference and fall within the reference range of normal or healthy mice”. For the same compound, in data set [2], the “increase of MDH activity compared to the vehicle control treatment” value is on record as 1.1 fold. In addition, in data set [3], the “body weight, feed and water intake” value is “did not have significant differences”. Besides, the “increase of LDH activity compared to the vehicle control treatment” value in data set [4] turned out to be 1.3 fold.
